Experimental data: PubChem BioAssay AID1963960 (Molecular Pharmacology Branch, DTP, NCI, 2024)

Tested on: MDA-MB-468 spheroids with HUVEC/MSC, viability
Assay: Anticancer human tumor MDA-MB-468 cell line growth inhibition [PI3K];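 also: spheroids exposed to agents for seven days before readout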;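 as to viability, T/C: 100% = DMSO vehicle control viability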
Details: for IC50: curve of first compound; for viability, T/C: stronger effect = lower value
Procedure, shortened: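 Multi-cell spheroids combine tumor cells with HUVEC and human MSCs, treated with targeted agents alone or with inavolisib, alpelisib, duvelisib or copanlisib. Concentrations fall in half-log steps from at or near clinical Cmax, or from 10 microM where Cmax is unknown; viability read-out.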

[1] = second compound 0.0316 µM, first compound 0.0316 µM
[2] = second compound 0.0316 µM, first compound 0.1 µM
[3] = second compound 0.0316 µM, first compound 0.316 µM
[4] = second compound 0.0316 µM, first compound 1 µM
[5] = second compound 0.0316 µM, first compound 3.16 µM
[6] = second compound 0.0316 µM, first compound 10 µM
[7] = second compound 0.1 µM, first compound 0.0316 µM
[8] = second compound 0.1 µM, first compound 0.1 µM
[9] = second compound 0.1 µM, first compound 0.316 µM
[10] = second compound 0.1 µM, first compound 1 µM
[11] = second compound 0.1 µM, first compound 3.16 µM
[12] = second compound 0.1 µM, first compound 10 µM
[13] = second compound 0.316 µM, first compound 0.0316 µM
[14] = second compound 0.316 µM, first compound 0.1 µM
[15] = second compound 0.316 µM, first compound 0.316 µM
[16] = second compound 0.316 µM, first compound 1 µM
[17] = second compound 0.316 µM, first compound 3.16 µM
[18] = second compound 0.316 µM, first compound 10 µM
[19] = second compound 1 µM, first compound 0.0316 µM
[20] = second compound 1 µM, first compound 0.1 µM
[21] = second compound 1 µM, first compound 0.316 µM
[22] = second compound 1 µM, first compound 1 µM
[23] = second compound 1 µM, first compound 3.16 µM
[24] = second compound 1 µM, first compound 10 µM
[25] = second compound 3.16 µM, first compound 0.0316 µM
[26] = second compound 3.16 µM, first compound 0.1 µM
[27] = second compound 3.16 µM, first compound 0.316 µM
[28] = second compound 3.16 µM, first compound 1 µM
[29] = second compound 3.16 µM, first compound 3.16 µM
[30] = second compound 3.16 µM, first compound 10 µM
[31] = second compound 10 µM, first compound 0.0316 µM
[32] = second compound 10 µM, first compound 0.1 µM
[33] = second compound 10 µM, first compound 0.316 µM
[34] = second compound 10 µM, first compound 1 µM
[35] = second compound 10 µM, first compound 3.16 µM
[36] = second compound 10 µM, first compound 10 µM

CC1(C)CCC(CN2CCN(c3ccc(C(=O)NS(=O)(=O)c4ccc(NCC5CCOCC5)c([N+](=O)[O-])c4)c(Oc4cnc5[nH]ccc5c4)c3)CC2)=C(c2ccc(Cl)cc2)C1 + Cc1nc(NC(=O)N2CCCC2C(N)=O)sc1-c1ccnc(C(C)(C)C(F)(F)F)c1
IC50 (second compound 0.0316 µM): 4010 nM | IC50 (second compound 0.1 µM): 4590 nM | IC50 (second compound 0.316 µM): 3260 nM | IC50 (second compound 1 µM): 3800 nM | IC50 (second compound 3.16 µM): 2120 nM | IC50 (second compound 10 µM): < 31.6 nM | viability, T/C [1]: 93.8% | viability, T/C [2]: 110% | viability, T/C [3]: 85.9% | viability, T/C [4]: 103% | viability, T/C [5]: 61% | viability, T/C [6]: 8.14% | viability, T/C [7]: 85.3% | viability, T/C [8]: 92.4% | viability, T/C [9]: 80.2% | viability, T/C [10]: 104% | viability, T/C [11]: 69.9% | viability, T/C [12]: 8.59% | viability, T/C [13]: 110% | viability, T/C [14]: 105% | viability, T/C [15]: 97.5% | viability, T/C [16]: 88.7% | viability, T/C [17]: 50.2% | viability, T/C [18]: 7.04% | viability, T/C [19]: 99.7% | viability, T/C [20]: 72.3% | viability, T/C [21]: 99.9% | viability, T/C [22]: 85.4% | viability, T/C [23]: 58.1% | viability, T/C [24]: 7.9% | viability, T/C [25]: 77.8% | viability, T/C [26]: 61.8% | viability, T/C [27]: 54% | viability, T/C [28]: 66.3% | viability, T/C [29]: 43.3% | viability, T/C [30]: 9.97% | viability, T/C [31]: 35.2% | viability, T/C [32]: 27.1% | viability, T/C [33]: 35.2% | viability, T/C [34]: 32.4% | viability, T/C [35]: 24.9% | viability, T/C [36]: 8.18%

C[C@@H](NC(=O)c1ncnc(N)c1Cl)c1ncc(C(=O)Nc2cc(C(F)(F)F)c(Cl)cn2)s1 + Cc1nc(NC(=O)N2CCCC2C(N)=O)sc1-c1ccnc(C(C)(C)C(F)(F)F)c1
IC50 (second compound 0.0316 µM): > 10000 nM | IC50 (second compound 0.1 µM): > 10000 nM | IC50 (second compound 0.316 µM): > 10000 nM | IC50 (second compound 1 µM): > 10000 nM | IC50 (second compound 3.16 µM): 9150 nM | IC50 (second compound 10 µM): < 31.6 nM | viability, T/C [1]: 75.5% | viability, T/C [2]: 109% | viability, T/C [3]: 85.4% | viability, T/C [4]: 117% | viability, T/C [5]: 89.7% | viability, T/C [6]: 82.8% | viability, T/C [7]: 88.4% | viability, T/C [8]: 89.2% | viability, T/C [9]: 86.4% | viability, T/C [10]: 119% | viability, T/C [11]: 95% | viability, T/C [12]: 85.2% | viability, T/C [13]: 107% | viability, T/C [14]: 92.2% | viability, T/C [15]: 78.8% | viability, T/C [16]: 98.3% | viability, T/C [17]: 85.3% | viability, T/C [18]: 68.6% | viability, T/C [19]: 91.9% | viability, T/C [20]: 71.8% | viability, T/C [21]: 72.7% | viability, T/C [22]: 75.7% | viability, T/C [23]: 69.1% | viability, T/C [24]: 61.6% | viability, T/C [25]: 84.7% | viability, T/C [26]: 59.2% | viability, T/C [27]: 74.8% | viability, T/C [28]: 61.4% | viability, T/C [29]: 59.3% | viability, T/C [30]: 46.8% | viability, T/C [31]: 40.2% | viability, T/C [32]: 31.9% | viability, T/C [33]: 39.3% | viability, T/C [34]: 35.4% | viability, T/C [35]: 34% | viability, T/C [36]: 17.1%

Cn1ncnc1[C@H]1c2n[nH]c(=O)c3cc(F)cc(c23)N[C@@H]1c1ccc(F)cc1 + Cc1nc(NC(=O)N2CCCC2C(N)=O)sc1-c1ccnc(C(C)(C)C(F)(F)F)c1
IC50 (second compound 0.0316 µM): > 100 nM | IC50 (second compound 0.1 µM): 66.5 nM | IC50 (second compound 0.316 µM): 42.9 nM | IC50 (second compound 1 µM): 24.4 nM | IC50 (second compound 3.16 µM): 4.2 nM | IC50 (second compound 10 µM): < 0.316 nM | viability, T/C (second compound 0.0316 µM, first compound 0.000316 µM): 88.3% | viability, T/C (second compound 0.0316 µM, first compound 0.001 µM): 79.8% | viability, T/C (second compound 0.0316 µM, first compound 0.00316 µM): 84.7% | viability, T/C (second compound 0.0316 µM, first compound 0.01 µM): 98.3% | viability, T/C [1]: 84% | viability, T/C [2]: 56.3% | viability, T/C (second compound 0.1 µM, first compound 0.000316 µM): 80.2% | viability, T/C (second compound 0.1 µM, first compound 0.001 µM): 93.7% | viability, T/C (second compound 0.1 µM, first compound 0.00316 µM): 81.9% | viability, T/C (second compound 0.1 µM, first compound 0.01 µM): 93% | viability, T/C [7]: 62.7% | viability, T/C [8]: 43% | viability, T/C (second compound 0.316 µM, first compound 0.000316 µM): 88% | viability, T/C (second compound 0.316 µM, first compound 0.001 µM): 76.6% | viability, T/C (second compound 0.316 µM, first compound 0.00316 µM): 83.7% | viability, T/C (second compound 0.316 µM, first compound 0.01 µM): 79.6% | viability, T/C [13]: 52.5% | viability, T/C [14]: 43% | viability, T/C (second compound 1 µM, first compound 0.000316 µM): 94.2% | viability, T/C (second compound 1 µM, first compound 0.001 µM): 78% | viability, T/C (second compound 1 µM, first compound 0.00316 µM): 62.9% | viability, T/C (second compound 1 µM, first compound 0.01 µM): 62% | viability, T/C [19]: 46.1% | viability, T/C [20]: 41.4% | viability, T/C (second compound 3.16 µM, first compound 0.000316 µM): 64.7% | viability, T/C (second compound 3.16 µM, first compound 0.001 µM): 60% | viability, T/C (second compound 3.16 µM, first compound 0.00316 µM): 50.4% | viability, T/C (second compound 3.16 µM, first compound 0.01 µM): 46.7% | viability, T/C [25]: 37.6% | viability, T/C [26]: 36.2% | viability, T/C (second compound 10 µM, first compound 0.000316 µM): 35.2% | viability, T/C (second compound 10 µM, first compound 0.001 µM): 25.9% | viability, T/C (second compound 10 µM, first compound 0.00316 µM): 31.2% | viability, T/C (second compound 10 µM, first compound 0.01 µM): 26.9% | viability, T/C [31]: 20.3% | viability, T/C [32]: 18.5%
